# Measured values from PubChem BioAssay (NCI).
#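 48-hour exposure; five concentrations; linearly interpolated endpoints. At the GI50, growth is halved. Definition used: TGI = concentration required for complete inhibition of growth.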 Calls of active or inactive are those of the source. Cut-off read from the data, not from the text of the source: active = GI50 below about 0.43 µM; inactive = the rest.
# What was measured:
# Assay in all cases: NCI-60 cell line screen, 48 h
# [1] = tested on: HCT-116 colon
# [2] = tested on: RXF 393 renal
# [3] = tested on: OVCAR-3 ovarian
# [4] = tested on: ACHN renal
# [5] = tested on: NCI-H23 lung
# [6] = tested on: T-47D breast
# [7] = tested on: A498 renal
# [8] = tested on: UACC-257 melanoma
# [9] = tested on: NCI/ADR-RES ovarian
# [10] = tested on: XF 498 CNS
# [11] = tested on: HOP-92 NSCLC
# [12] = tested on: NCI-H226 lung
# [13] = tested on: KM20L2 colon
# [14] = tested on: MDA-N
# [15] = tested on: 786-0 renal
# [16] = tested on: RXF-631 renal
# [17] = tested on: PC-3 prostate
# [18] = tested on: SK-MEL-2 melanoma
# [19] = tested on: SN12C renal
structure (smiles),measurement,setting,value
C[CH2][Sn]([CH2]C)([O]C(=O)c1ccccc1F)[O]C(=O)c1ccccc1F,GI50,[1],> 69.8 µM
same,TGI,[1],> 100 µM
same,GI50,[2],15.4 µM
same,TGI,[2],35.4 µM
same,GI50,[3],> 100 µM
same,TGI,[3],> 100 µM
same,GI50,[4],32.7 µM
same,TGI,[4],48.3 µM
same,GI50,[5],22.6 µM
same,TGI,[5],45 µM
same,GI50,[6],11.8 µM
same,TGI,[6],24.4 µM
same,GI50,[7],18.5 µM
same,TGI,[7],35.5 µM
same,GI50,[8],32 µM
same,TGI,[8],> 46.4 µM
same,GI50,[9],> 100 µM
same,TGI,[9],> 100 µM
same,GI50,[10],15.9 µM
same,TGI,[10],30.6 µM
same,GI50,[11],18 µM
same,TGI,[11],37.7 µM
same,GI50,[12],14.7 µM
same,TGI,[12],22.1 µM
same,GI50,[13],> 83.8 µM
same,TGI,[13],> 100 µM
same,GI50,[14],> 100 µM
same,TGI,[14],> 100 µM
same,GI50,[15],33.3 µM
same,TGI,[15],> 69.3 µM
same,GI50,[16],18.6 µM
same,TGI,[16],34.1 µM
same,GI50,[17],> 100 µM
same,TGI,[17],> 100 µM
same,GI50,[18],15.8 µM
same,TGI,[18],28.1 µM
same,GI50,[19],> 75 µM
same,TGI,[19],> 100 µM
C=CC(=O)C#CC#CC/C=C\CCCCCCC,TGI,[1],> 20.6 µM
same,outcome,[1],inactive
same,TGI,[2],> 19.5 µM
same,outcome,[2],inactive
same,TGI,[3],> 20.6 µM
same,outcome,[3],inactive
same,TGI,[4],> 20.6 µM
same,outcome,[4],inactive
same,TGI,[5],> 20.6 µM
same,outcome,[5],inactive
same,TGI,[6],> 20.6 µM
same,outcome,[6],inactive
same,TGI,[7],> 20.6 µM
same,outcome,[7],inactive
same,TGI,[8],> 20.6 µM
same,outcome,[8],inactive
same,TGI,[9],> 20.6 µM
same,outcome,[9],inactive
same,TGI,[11],> 20.6 µM
same,TGI,[12],> 20.6 µM
same,outcome,[12],inactive
same,TGI,[13],> 20.6 µM
same,outcome,[14],inactive
same,TGI,[15],> 18.4 µM
same,outcome,[15],inactive
same,outcome,[17],inactive
same,TGI,[18],> 20.6 µM
same,outcome,[18],inactive
same,TGI,[19],> 20.6 µM
same,outcome,[19],inactive
